“Also recorded” adds a separate entry of the source.
Key:
RORγ = tested on: RORγ; set-up: method as in ToxCast database released in October 2015; details: active/inactive call; ref ToxCast database released in October 2015; cited from earlier work
[1] = biological target: T1, PPARγ ligand binding domain (204–477) (Homo sapiens, UniProt P37231); assay: Surface plasmon resonance (SPR) analysis of fatty acid binding to immobilized PPARγ LBD; details: for Rmax: SPR steady-state fit, FUA: chip coupled with 12000RU; for binding to PPARγ in SPR (in words): compared with DHA and EPA; for Kd: steady-state fit, Biacore T200, chip about 6500 RU (FUA: chip coupled with 12000RU PPARγ LBD)
T1 construct: GST (N, cleaved yes); made in house; host or cells: E. coli BL21(DE3)
T1 sequence (P37231 204-477 isoform P37231-2): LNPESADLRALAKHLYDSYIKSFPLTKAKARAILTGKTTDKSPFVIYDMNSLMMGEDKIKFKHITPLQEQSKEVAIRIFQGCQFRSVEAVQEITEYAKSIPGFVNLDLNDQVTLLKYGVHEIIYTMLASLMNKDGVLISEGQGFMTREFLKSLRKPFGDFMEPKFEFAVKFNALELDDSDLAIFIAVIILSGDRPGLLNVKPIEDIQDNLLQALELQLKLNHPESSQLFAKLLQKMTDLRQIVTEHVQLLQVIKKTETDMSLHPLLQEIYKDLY
Description: The protein was firstly purified using a glutathione Sephararose 4B column, followed by PreScission protease cleavage to remove the GST-tag. […] The finally collected protein in 20 mM Tirs, pH8.0, 150 mM NaCl and 2 mM DTT was concentrated to 20 mg/ml. The purity was checked by SDS-PAGE and protein was stored at − 80 °C for use.
PPARγ (0.05 mg/ml) were coupled onto CM5 sensor chips according to amine coupling procedure from the manufacturer’s manual. […] A reference channel was generated at same conditions without protein injection and used as a blank control to correct the instrument or buffer artifacts. Fatty acids were dissolved in DMSO and diluted with concentration ranging from 0.78 to 50 μM, and injected at a flowrate of 40 μL/min. Each sensorgram consists of an association phase (120 s), indicating the binding of the injected compound to the protein, followed by a dissociation phase (300 s) during which the running buffer (10 mM phosphate buffer, 150 mM NaCl, 5% DMSO, 0.05% Tween 20, pH 7.4) is passed over and the bound compounds were eluted from the chip surface. The Kd was calculated by steady-state binding fitting method in Biacore T200 evaluate the software.

GR = tested on: GR; set-up: method as in ToxCast database released in October 2015; details: active/inactive call; ref ToxCast database released in October 2015; cited from earlier work
PR = tested on: PR; set-up: method as in ToxCast database released in October 2015; details: active/inactive call; ref ToxCast database released in October 2015; cited from earlier work
AR = tested on: AR; set-up: method as in ToxCast database released in October 2015; details: active/inactive call; ref ToxCast database released in October 2015; cited from earlier work
PPARα = tested on: PPARα; set-up: method as in ToxCast database released in October 2015; details: active/inactive call; ref ToxCast database released in October 2015; cited from earlier work

Row | Rmax [1] | binding to PPARγ in SPR (in words) [1] | Kd [1] | Compound | also measured
1 | – | – | – | CC(C)c1cccc(C(C)C)c1N1C(=O)c2ccc(O)cc2C1=O [5HPP-33] | ToxCast activity against RORγ (RORγ): active
2 | 281 RU | – | – | CC/C=C\C/C=C\C/C=C\C/C=C\C/C=C\C/C=C\CCC(=O)O [DHA, Docosahexaenoic acid, reference compound] | –
3 | 136 RU | – | 629 µM | CC/C=C\C/C=C\C/C=C\C/C=C\C/C=C\CCCC(=O)O [EPA, Eicosapentaenoic acid, reference compound] | –
4 | – | – | – | CC(C)[C@H](C(=O)O[C@H](C#N)c1cccc(Oc2ccccc2)c1)c1ccc(Cl)cc1 [Esfenvalerate] | ToxCast activity against GR (GR): active
5 | 38.55 RU | stronger binding than DHA and EPA | 136 µM | CCCCCc1cc(C)c(CCCCCCCCC(=O)O)o1 [FNA, 10,13-epoxy-11-methyloctadeca-10,12-dienoic acid] | –
6 | 459.3 RU | stronger binding than DHA and EPA | 249 µM | CCCc1cc(C)c(CCCCCCCCCCC(=O)O)o1 [FUA, 11-(3-methyl-5-propylfuran-2-yl)undecanoic acid] | –
7 | – | – | – | CC1(C)NC(=O)N(c2ccc([N+](=O)[O-])c(C(F)(F)F)c2)C1=O [Nilutamide] | ToxCast activity against PR (PR): active
8 | – | – | – | O=C(O)CN(CC(=O)O)CC(=O)O [Nitrilotriacetic acid] | ToxCast activity against AR (AR): active
9 | 33.28 RU | stronger binding than DHA and EPA | 103 µM | CCCCCCC1CC1CCCCCCCCCC(=O)O (centres unmarked) [PTA, Phytomonic acid] | –
10 | > 10,000.00 RU | weaker binding than DHA | > 10000 µM | CCCCCC[C@@H](O)C/C=C\CCCCCCCC(=O)O [ROA, ricinoleic acid] | –
11 | – | – | – | CN1CCc2cccc3c2[C@H]1Cc1ccc(O)c(O)c1-3 [apomorphine, reference compound] | ToxCast activity against PPARα (PPARα): active
12 | – | – | – | CCOC(=O)C(C)OC(=O)c1cc(Oc2ccc(C(F)(F)F)cc2Cl)ccc1[N+](=O)[O-] (centres unmarked) [lactofen] | ToxCast activity against AR (AR): active
13 | – | – | – | O=c1c(O)c(-c2ccc(O)cc2O)oc2cc(O)cc(O)c12 [morin] | ToxCast activity against PPARα (PPARα): active
14 | – | – | – | Cl.N=C1C=CC(=C(c2ccc(N)cc2)c2ccc(N)cc2)C=C1 [parafuchsin] | ToxCast activity against RORγ (RORγ): active
15 | – | – | – | Oc1ccc(/C=C/c2cc(O)cc(O)c2)cc1 [reservertol] | ToxCast activity against RORγ (RORγ): active
16 | – | – | – | O=C(c1ccc(O)cc1O)c1ccc(O)cc1O [tetrahydroxybenzophenone] | ToxCast activity against AR (AR): active
17 | – | – | – | CC1(C)CCC(=Cc2ccc(Cl)cc2)C1(O)Cn1cncn1 (centres unmarked) [triconazole] | ToxCast activity against AR (AR): active
18 | > 10,000.00 RU | weaker binding than DHA | > 10000 µM | eicosatrienoic acid [ESA] | –

Row | Compound | Rmax [1] | binding to PPARγ in SPR (in words) [1] | Kd [1] | also measured
19 | CC/C=C\C/C=C\C/C=C\C/C=C\C/C=C\CCCCCC(=O)O [DPA, docosapentaenoic acid] | 2167 RU | weaker binding than DHA; also recorded: confirmed to bind to PPARγ, weaker than DHA and EPA | 3960 µM | –
